The source of these data is paper PMC5693244 (European journal of medicinal chemistry, 2017).

In data set [1] the target is T1, h-FPR2 (Homo sapiens, UniProt P25090).
T1 sequence (P25090 1-351): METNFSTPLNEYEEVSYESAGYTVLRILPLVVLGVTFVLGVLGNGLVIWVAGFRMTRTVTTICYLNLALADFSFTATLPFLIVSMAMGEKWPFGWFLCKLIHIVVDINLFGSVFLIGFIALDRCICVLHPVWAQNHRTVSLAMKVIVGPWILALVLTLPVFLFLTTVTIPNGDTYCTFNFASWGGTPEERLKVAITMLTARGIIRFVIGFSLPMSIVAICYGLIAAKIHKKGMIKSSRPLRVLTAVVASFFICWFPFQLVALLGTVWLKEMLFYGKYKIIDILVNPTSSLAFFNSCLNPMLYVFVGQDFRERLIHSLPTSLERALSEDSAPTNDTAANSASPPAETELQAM
The note with it: previously characterized; ref [33]; cited from earlier work.

The target of data set [2] is T1, h-FPR2. The data set can be described thus: Ca2+ mobilization in FPR2-HL60 transfected cells. Format: cell-based. The note with it: for EC50, μM FPR2-HL60 / Agonist character (full/partial) at FPR2: Ca2+ mobilization; for EC50, μM FPR2-HL60: FPR2-HL60 cells.
A short description of data set [3]: Stability assays in rat liver microsomes. The note with it: pH 7.4, Metabolic stability (% remaining), percent of parent compound remaining after 30-min incubation. It counts as in vitro ADME.
Data set [4] concerns human neutrophils. In words: Ca2+ mobilization in human neutrophils. It counts as cell-based.
In data set [5] the test system is rat primary microglial cells. In words: Lactate dehydrogenase. The note with it: for Effect on LPS-induced cell death (LDH release): LPS-stimulated, pre-treatment 1 μM and 5 μM; for Effect on LDH release (cell death) / Effect on LDH release: basal conditions; for Effect on LDH release (cell death): 50 μM; for Effect on LDH release: 0.5–10 μM, 24 h. It counts as cell-based.

Data set [6] relates to rat primary microglial cells. In words: MTT cell viability test in rat primary microglial cell cultures. It counts as cell-based. The note with it: for Effect on metabolic activity (MTT): 0.5–10 μM, 24 h.
The subject of data set [7] is NO production in rat microglial cell cultures. The data set can be described thus: NO release assay. It counts as cell-based. The note with it: for Effect on LPS-increased NO level: LPS-stimulated, (S)-10 at 5 μM and 10 μM; for Effect on NO level: basal conditions.
In data set [8] the test system is IL-1β production in rat microglial cell cultures. The data set can be described thus: IL-1β ELISA in rat microglial cell cultures. The note with it: for Effect on LPS-evoked IL-1β production / Block by WRW4 of effect on IL-1β: LPS-stimulated; for Effect on LPS-evoked IL-1β production: 0.5 to 10 μM; for Block by WRW4 of effect on IL-1β: pre-treatment with FPR2 antagonist WRW4; for Effect on IL-1β production: basal conditions, agonists 0.5 μM-10 μM. Format: cell-based.

The test system of data set [9] is TNF-α production in rat microglial cell cultures. In words: TNF-α ELISA in rat microglial cell cultures. Format: cell-based. The note with it: for Effect on LPS-evoked TNF-α production: 0.5 to 10 μM; for Effect on TNF-α production: basal conditions, agonists 0.5 μM-10 μM.
Data set [10] concerns hCMEC/D3 cells. The data set can be described thus: Bidirectional transport across hCMEC/D3 cell monolayer. It counts as in vitro ADME, human. The note with it: 100 μM, 2 h; for PappBA: basolateral-to-apical transport.
Data set [11] has as its target T2, h-FPR1 (Homo sapiens, UniProt P21462).
T2 sequence (P21462 1-350): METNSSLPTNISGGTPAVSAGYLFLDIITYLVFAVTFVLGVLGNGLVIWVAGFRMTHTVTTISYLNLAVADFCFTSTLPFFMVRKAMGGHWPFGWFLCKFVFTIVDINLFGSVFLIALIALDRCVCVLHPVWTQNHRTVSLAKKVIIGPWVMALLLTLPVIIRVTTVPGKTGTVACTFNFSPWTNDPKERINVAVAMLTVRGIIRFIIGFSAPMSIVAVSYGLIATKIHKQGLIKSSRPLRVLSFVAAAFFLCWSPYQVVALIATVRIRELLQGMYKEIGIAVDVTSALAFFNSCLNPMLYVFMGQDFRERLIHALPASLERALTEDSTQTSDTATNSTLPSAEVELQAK
In words: Ca2+ mobilization in FPR1-HL60 transfected cells. Format: cell-based.

Regarding `O=C(Nc1ccc([N+](=O)[O-])cc1)N[C@H](Cc1c[nH]c2ccccc12)C(=O)NCC1(c2ccccc2)CC1` [(R)-6], the “Interaction with FPR2 (intrinsic activity)” value in data set [1] was “weak FPR2 antagonist”.

For `O=C(Nc1ccc(F)cc1)N[C@H](Cc1c[nH]c2ccccc12)C(=O)NCC1(c2ccccc2)CC1` [(R)-8, (R)-2-[3-(4-Fluorophenyl)ureido]-3-(1H-indol-3-yl)-N-[(1-phenylcyclopropyl)methyl]propanamide], the “EC50, μM FPR2-HL60” value in data set [2] is “not able to induce Ca^2+ mobilization”. The fraction remaining at 0.5 h, 10 μM in [3] turned out to be 4%.

Take `O=C(Nc1ccccc1)N[C@H](Cc1c[nH]c2ccccc12)C(=O)NCC1(c2ccccc2)CC1` [(R)-9, (R)-3-(1H-Indol-3-yl)-N-[(1-phenylcyclopropyl)methyl]-2-[3-(phenyl)ureido]propanamide]: the “EC50, μM FPR2-HL60” value in data set [2] was “not able to induce Ca^2+ mobilization”.

Regarding `N#Cc1ccc(C[C@@H](NC(=O)Nc2ccc([N+](=O)[O-])cc2)C(=O)NCC2(c3ccccc3)CC2)cc1` [(R)-10, (R)-3-(4-Cyanophenyl)-2-[3-(4-nitrophenyl)ureido]-N-[(1-phenylcyclopropyl)methyl]propanamide], the “Agonist character (full/partial) at FPR2” value in data set [2] is “full agonists”.

`O=C(Nc1ccc([N+](=O)[O-])cc1)N[C@H](Cc1cccnc1)C(=O)NCC1(c2ccccc2)CC1` [(R)-11, (R)-2-[3-(4-Nitrophenyl)ureido]-N-[(1-phenylcyclopropyl)methyl]-3-(3-pyridinyl)-propanamide]: the “Agonist character (full/partial) at FPR2” value in [2] was “partial agonists”. The “EC50, μM Neutrophils” value in [4] was “submicromolar range”. For the same compound, in data set [5], the “Effect on LPS-induced cell death (LDH release)” value was “effectively blocked LPS-induced cell death processes”, the “Effect on LDH release (cell death)” value was “significant increase in death processes” and the “Effect on LDH release” value is on record as “None of the compounds induced significant effects”. Besides, the “Effect on metabolic activity (MTT) in LPS-stimulated cells” value in [6] was “no effect was observed on metabolic activity”. Besides, in data set [6] (basal conditions), the “Effect on metabolic activity (MTT)” value was “None of the compounds induced significant effects”. Moreover, in [7], the “Effect on LPS-increased NO level” value was “no effect was observed” and the “Effect on NO level” value was “did not induce any change in NO level”. Besides, in [8], the “Effect on LPS-evoked IL-1β production” value is listed as “effectively decrease LPS-evoked cytokine production”, the “Block by WRW4 of effect on IL-1β” value is recorded as “able to block the effect” and the “Effect on IL-1β production” value was “did not induce any change”. Also, the “Effect on LPS-evoked TNF-α production” value in data set [9] (LPS-stimulated) was “effectively decrease LPS-evoked cytokine production”. For the same compound, in data set [9], the “Effect on TNF-α production” value was “did not induce any change”. Besides, the PappAB in data set [10] (apical-to-basolateral transport) was determined as 11924.5 ×10⁻⁶ cm/s. Further, the PappBA in data set [10] was 43754.4 ×10⁻⁶ cm/s.

`Cc1ccc(C2(CNC(=O)[C@@H](Cc3ccc(C#N)cc3)NC(=O)Nc3ccc(F)cc3)CC2)cc1F` [(R)-15, (R)-3-(4-Cyanophenyl)-N-[[1-(3-fluoro-4-methylphenyl)cyclopropyl]methyl]-2-[3-(4-fluorophenyl)ureido]propanamide]: the amount remaining at 0.5 h, 10 μM in data set [3] is > 20%.

Take `COc1ccc(NC(=O)N[C@H](Cc2ccc(C#N)cc2)C(=O)NCC2(c3ccc(F)c(Cl)c3)CC2)cc1` [(R)-16, (R)-N-[[1-(3-Chloro-4-fluorophenyl)cyclopropyl]methyl]-3-(4-cyanophenyl)-2-[3-(4-methoxyphenyl)ureido]propanamide]: the “Agonist character (full/partial) at FPR1” value in data set [11] is recorded as “potent FPR1 full agonists”.

On to `N#Cc1ccc(C[C@@H](NC(=O)Nc2ccc(F)cc2)C(=O)NCC2(c3ccc(F)c(Cl)c3)CC2)cc1` [(R)-17, (R)-3-(4-Cyanophenyl)-N-[[1-(3-chloro-4-fluorophenyl)cyclopropyl]methyl]-2-[3-(4-fluorophenyl)ureido]propanamide], for which the fraction remaining at 0.5 h, 10 μM in data set [3] was > 20%.

Turning to `COc1ccc(NC(=O)N[C@@H](Cc2c[nH]c3ccccc23)C(=O)NCC2(c3ccccc3)CC2)cc1` [(S)-7, (S)-3-(1H-Indol-3-yl)-2-[3-(4-methoxyphenyl)ureido]-N-[(1-phenylcyclopropyl)methyl] propanamide], the “Agonist character (full/partial) at FPR2” value in [2] is reported as “full agonist”. Also, the “Agonist character (full/partial) at FPR1” value in data set [11] was “full agonist”.

Take `O=C(Nc1ccc(F)cc1)N[C@@H](Cc1c[nH]c2ccccc12)C(=O)NCC1(c2ccccc2)CC1` [(S)-8, (S)-2-[3-(4-Fluorophenyl)ureido]-3-(1H-indol-3-yl)-N-[(1-phenylcyclopropyl)methyl]propanamide]: in data set [2], the “Agonist character (full/partial) at FPR2” value is “partial agonists”.

Turning to `O=C(Nc1ccccc1)N[C@@H](Cc1c[nH]c2ccccc12)C(=O)NCC1(c2ccccc2)CC1` [(S)-9, (S)-3-(1H-Indol-3-yl)-N-[(1-phenylcyclopropyl)methyl]-2-[3-(phenyl)ureido]propanamide], the “Agonist character (full/partial) at FPR2” value in data set [2] is “partial agonists”.

On to `N#Cc1ccc(C[C@H](NC(=O)Nc2ccc([N+](=O)[O-])cc2)C(=O)NCC2(c3ccccc3)CC2)cc1` [(S)-10, (S)-3-(4-Cyanophenyl)-2-[3-(4-nitrophenyl)ureido]-N-[(1-phenylcyclopropyl)methyl]propanamide], for which the “Agonist character (full/partial) at FPR2” value in data set [2] is “full agonists”. The “Increase in agonist potency compared to (S)-6” value in [2] (FPR2, (S)-10 compared to (S)-6) is 10 fold. Further, in data set [5], the “Effect on LPS-induced cell death (LDH release)” value was “effectively blocked LPS-induced cell death processes”, the “Effect on LDH release (cell death)” value is recorded as “significant increase in death processes” and the “Effect on LDH release” value is reported as “None of the compounds induced significant effects”. In addition, the “Effect on metabolic activity (MTT) in LPS-stimulated cells” value in data set [6] is “no effect was observed on metabolic activity”. Besides, in data set [6] (basal conditions, 50 μM), the “Effect on conversion of MTT dye” value is reported as “decreased the conversion of MTT dye”. Further, the “Effect on metabolic activity (MTT)” value in data set [6] (basal conditions) was “None of the compounds induced significant effects”. In [7], the “Effect on LPS-increased NO level” value is “significantly attenuated” and the “Effect on NO level” value is given as “did not induce any change in NO level”. For the same compound, in data set [8], the “Effect on LPS-evoked IL-1β production” value is “effectively decrease LPS-evoked cytokine production”, the “Block by WRW4 of effect on IL-1β” value is given as “did not abolish the observed effect” and the “Effect on IL-1β production” value was “did not induce any change”. The “Effect on LPS-evoked TNF-α production” value in [9] (LPS-stimulated) is on record as “effectively decrease LPS-evoked cytokine production”. Besides, in data set [9] (LPS-stimulated, pre-treatment with FPR2 antagonist WRW4), the “Block by WRW4 of effect on TNF-α” value is “did not abolish the observed effect”. In data set [9], the “Effect on TNF-α production” value is “did not induce any change”. For the same compound, the PappBA in [10] is 25303.3 ×10⁻⁶ cm/s.

In the case of `O=C(Nc1ccc([N+](=O)[O-])cc1)N[C@@H](Cc1cccnc1)C(=O)NCC1(c2ccccc2)CC1` [(S)-11, (S)-2-[3-(4-Nitrophenyl)ureido]-N-[(1-phenylcyclopropyl)methyl]-3-(3-pyridinyl)-propanamide], the “Agonist character (full/partial) at FPR2” value in [2] is given as “partial agonists”. The “EC50, μM FPR1-HL60” value in data set [11] (FPR1-HL60 cells) was “low micromolar range”.

On to `COc1ccc(NC(=O)N[C@@H](Cc2ccc(C#N)cc2)C(=O)NCC2(c3ccc(F)c(Cl)c3)CC2)cc1` [(S)-16, (S)-N-[[1-(3-Chloro-4-fluorophenyl)cyclopropyl]methyl]-3-(4-cyanophenyl)-2-[3-(4-methoxyphenyl)ureido]propanamide], for which the “Agonist character (full/partial) at FPR1” value in [11] was “potent FPR1 full agonists”.
